Laboratory results as given in patent US8741932B2, “Imidazopyridine derivatives” (Piramal Enterprises Limited, priority 2009, dated 2014).

Experiments:
Assay type in all cases: cell-based
STAT3 = STAT3 bioassay (Hela Stat3-luc, luciferase); conditions: Homo sapiens, Oncostatin M induction
Summary of the method: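 Hela Stat3-luc cells (20,000/well, 24 h) pretreated with compound 1 h, then induced with 100 ng/ml final Oncostatin M for 7-8 h at 37 °C. Luciferase luminescence after lysis; percent inhibition versus induction control, IC50 from these percentages.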

A2780 = test: Cytotoxicity assay (propidium iodide), A2780; conditions: Homo sapiens; A2780 (C3a, ovarian); 48 hours
TNF-α = test: Human monocyte assay, LPS-stimulated TNF-α; conditions: human monocytes, 1 μg/ml LPS, 5 hours
Method: The assay was designed as in the reference, Physiol.
Peripheral blood mononuclear cells (hPBMC) were harvested from human blood and suspended in RPMI 1640 culture medium containing 10% FCS, 100 U/mL penicillin and […] streptomycin (assay medium). Monocytes in the hPBMCs were counted using a Coulter Counter following which the cells were resuspended at 2×10^5 monocytes/mL. A cell suspension containing 2×10^4 monocytes was aliquoted per well of a 96-well plate. Subsequently, the hPBMCs were incubated for 4-5 hours at 37° C., 5% CO2 (During the incubation, the monocytes adhered to the bottom of 96-well plastic culture plate). Following the incubation, the non-adherent lymphocytes were washed with assay medium and the adherent monocytes re-fed with assay medium. After a 48-hour incubation period (37° C., 5% CO2), monocytes were pretreated with various concentrations of representative compounds of present invention (refer to table 6 and 7) (prepared in DMSO) or vehicle (0.5% DMSO) for 30 minutes and stimulated with 1 μg/ml LPS (Escherchia coli 0111:B4, Sigma Chemical Co., St. Louis, Mo.). The incubation was continued for 5 hours at 37° C., 5% CO2. Supernatants were harvested, assayed for IL-6 and TNF-α by ELISA as described by the manufacturer (BD Biosciences, USA). Dexamethasone (10 μM) was used as standard for this assay. […] Biological results for both IL-6 and TNFα are indicated in Table 6 and Table 7 respectively.

IL-6 = test: Human monocyte assay, LPS-stimulated IL-6; conditions: Monocyte; human monocytes, 1 μg/ml LPS, 5 hours
Summary of the method: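 Adherent human PBMC-derived monocytes (2×10^4/well) were cultured 48 h, preincubated 30 min with compound or 0.5% DMSO, then stimulated with 1 μg/ml E. coli LPS for 5 h at 37° C. TNF-α and IL-6 in supernatants were measured by ELISA.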

T47D = test: Cytotoxicity assay (propidium iodide), T47D; conditions: Homo sapiens; T47D (C6e, breast); 48 hours
Method: (§1) Cells from cell lines as mentioned in the table given below were seeded at a density of 3000 cells/well in a white opaque 96-well plate. Following incubation at 37° C./5% CO2 for a period of 18-24 hours, the cells were treated with various concentrations (stock solution was prepared in DMSO and subsequent dilutions were made in media as per ATCC guidelines) of the representative compounds of present invention (refer table 3) for a period of 48 hours. At the end of treatment, the spent culture medium was discarded, the cells were washed with 1×PBS and 200 μl of 7 μg/ml propidium iodide was added to each well. The plates were frozen at −70° C. for at least 24 hours. For analysis, the plates were brought to RT, allowed to thaw and were read in PolarStar fluorimeter with the fluorescence setting. The percentage of viable cells in the non treated set of wells was considered to be 100 and the percentage viability following treatment was calculated accordingly. IC50 values were calculated from graphs plotted using these percentages.

IL-8 = test: Synovial tissue assay, IL-8; conditions: Homo sapiens; synovial tissue cells from rheumatoid arthritis patients, 16 hours
Method: The assay was designed as in the reference, Lancet, 2(8657), 244-7, Jul.
Stock Solution: Compounds of the present invention were dissolved in DMSO to obtain a stock solution of 20 mM.
Synovial tissue was obtained from rheumatoid arthritis patients undergoing knee replacement surgery. The tissue was minced into small pieces and digested in RPMI medium containing 100 U/ml penicillin-G, 100 μg/ml streptomycin, 50 ng/ml amphotericin B (GIBCO; USA), 1.33 mg/ml collagenase Type I (Worthington Biochemical Corporation, New Jersey), 0.5 μg/ml DNAse Type I (Sigma Aldrich; St. Louis, Mo.) and 8.33 U/ml heparin (Biological E. Limited, India) for 3 hours at 37° C., 5% CO2. The digested tissue was filtered through a membrane (mesh size 70 micron; Sigma Aldrich). Subsequently, the cells were washed 3 times and resuspended in complete medium (RPMI supplemented with 5% FBS and 5% human serum-AB+) at a concentration of 1×10^6 cells/ml. All cell washes in this assay were performed using Rosewall Park Memorial Institute (RPMI)-1640 medium (JRH; Australia). For the experiment, 100 μl of cell suspension was added to the wells of a 96-well culture plate. Following cell plating, 100 μl of the culture medium and 1 μl of various concentrations (0.01, 0.03, 0.1, 0.3, 1, 3, 10, 30 and 100 μM) of the compounds of present invention dissolved in DMSO were added to the cells. The final concentration of DMSO was adjusted to 0.5%. For experimental purposes, 1 μl of […] concentrated solution of the compounds of present invention were dissolved in 200 μl cell suspension to achieve a final concentration of 0.01, 0.03, 0.1, 0.3, 1, 3, 10, 30 and 100 μM. The vehicle (0.5% DMSO) was used as control. 10 μM dexamethasone (Sigma Aldrich) or 1 μM 7-hydroxyfluorinide (7HF) were used as standards for the experiments. The plates were incubated for 16 hours at 37° C., 5% CO2. Subsequently, the supernatants were harvested and stored at −70° C. The amounts of TNF-α, IL-6 and interleukin-8 (IL-8) in the supernatants were assayed using OptiEIA ELISA sets, (BD BioSciences Pharmingen). The protocol followed was as per manufacturers instructions. […] The cytotoxicity of test compounds in synovial cells was assessed by MTS assay. Absorbance was measured at 490 nm. Percent cytotoxicity was calculated by the equation: % Cytotoxicity=(A−B)/A×100 where, A is the absorbance of cells treated with DMSO alone and B is the absorbance of cells treated with the test article.

SKOV3 = test: Cytotoxicity assay (propidium iodide), SKOV3; conditions: Homo sapiens, SK-OV-3; SKOV3 (C3b, ovarian); 48 hours
Method: as §1

Structure (SMILES)	IC50 (STAT3)	IC50 (TNF-α)	IC50 (IL-6)	IC50 (IL-8)	IC50 (A2780)	IC50 (T47D)	IC50 (SKOV3)
CN(N=Cc1cnc2ccc(-c3cccnc3)cn12)S(=O)(=O)c1cc(F)cc(F)c1 [Example 16, 3,5-Difluoro-N-methyl-N′-((6-(pyridine-3-yl)imidazo[1,2-a]pyridine-3-yl)methylene) benzenesulfonohydrazide]	5000 to 10000 nM	1 to 1000 nM	0.001 to 5 µM	0.3 to 3 µM	–	–	–
Cc1ccc(F)cc1S(=O)(=O)N(C)N=Cc1cnc2ccc(-c3cccnc3)cn12 [Example 21, 5-Fluoro-N, 2-dimethyl-N′-((6-(pyridine-3-yl)imidazo[1,2-a]pyridine-3-yl)methylene) benzenesulfonohydrazide]	5000 to 10000 nM	1 to 1000 nM	0.001 to 5 µM	0.01 to 0.3 µM	10 to 5000 nM	–	10 to 5000 nM
Cc1ccc([N+](=O)[O-])cc1S(=O)(=O)N(C)N=Cc1cnc2ccc(-c3cccnc3)cn12 [Example 25]	100 to 5000 nM	–	0.001 to 5 µM	0.3 to 3 µM	10 to 5000 nM	10 to 5000 nM	10 to 5000 nM

Further lines, with some results ahead:

IC50 (STAT3)	IC50 (TNF-α)	IC50 (IL-6)	IC50 (IL-8)	Structure (SMILES)	IC50 (A2780)	IC50 (T47D)	IC50 (SKOV3)
100 to 5000 nM	1000 to 15000 nM	0.001 to 5 µM	0.3 to 3 µM	CN(N=Cc1cnc2ccc(-c3cccnc3)cn12)S(=O)(=O)c1cccc(F)c1 [Example 5, 3-Fluoro-N-methyl-N′-((6-(pyridine-3-yl)imidazo[1,2-a]pyridine-3-yl)methylene)benzenesulfonohydrazide]	10 to 5000 nM	> 5000 nM	10 to 5000 nM
5000 to 10000 nM	1 to 1000 nM	0.001 to 5 µM	0.3 to 3 µM	CN(N=Cc1cnc2ccc(-c3cccnc3)cn12)S(=O)(=O)c1ccc(F)cc1 [Example 6, 4-Fluoro-N-methyl-N′-((6-(pyridine-3-yl)imidazo[1,2-a]pyridine-3-yl)methylene)benzenesulfonohydrazide]	10 to 5000 nM	> 5000 nM	–
